Results as given in US4283408A, “Guanidinothiazole compounds, process for preparation and gastric inhibiting compositions containing them” (Yamanouchi Pharmaceutical Co., Ltd., priority 1979, dated 1981).

Experiments:
H2 -receptor = conditions: isolated guinea pig atrium; effects mediated by the H2 -receptor; Ash and Schild, Black et al.; cited from earlier work
Gastric acid secretion [1] = assay: Gastric acid secretion in anesthetized dogs (histamine-induced); type: in vivo, Mongrel dogs; conditions: Canis lupus familiaris, iv, read-out: (A) Gastric secretion ED50
Procedure: (i) Gastric acid secretion in anesthetized dogs: Mongrel dogs weighing 8 to 15 Kg were deprived of food for 24 hr and anesthetized intravenously with pentobarbital (30 mg/Kg). […] The gastric juice was collected from the gastric cannula by gravity drainage every 15 min. Test compounds were given intravenously after gastric secretion induced by a continuous intravenous infusion of histamine (160 μg/Kg-hr) reached a steady state.

Gastric acid secretion [2] = assay: Gastric acid secretion in pylorus-ligated rats; type: in vivo, Male Wister rats; conditions: Rattus norvegicus, read-out: (B) Pylorus-ligated rats ED50
Procedure: (ii) Gastric acid secretion in pylorus-ligated rats
Male Wister rats weighing about 200 g were deprived of food for 24 hr but allowed free access to water prior to the experiments in individual cages. […] Test compounds were intraduodenally given immediately after the ligation of pylorus. The animals were sacrificed 4 hr after drug administration and gastric contents were collected. […] The percent inhibition of gastric secretion by each dose of drugs was calculated from the acid outputs of control and of treated groups. ED50 values were determined by the probit method.

Acute toxicity in mice = conditions: mouse, in vivo, iv; male ICR mice; i.v.; 7 days observation; up and down method; base; read-out: (C) LD50 in mice
Procedure: (iii) Acute toxicity in mice
Drugs were injected intravenously in male ICR mice weighing about 35 g at a rate of 0.1 ml/10 sec and the animals were kept under observation for 7 days. LD50 values were determined by up and down method using 10 animals. The data are shown in Table I, under column entitled (C).

[3] = anesthetized dogs, i.v., histamine infusion 160 μg/Kg-hr, dose producing 50% inhibition of the acid output, base
[4] = pylorus-ligated rats, intraduodenal, 4 hr, probit method, base

Row | Structure (SMILES) | inhibition of histamine effects on gastric acid secretion and heart rate (H2 -receptor) | ED50 (Gastric acid secretion [1]) [mg/kg] | ED50 (Gastric acid secretion [2]; 4 h) [mg/kg] | LD50 at 168 h (Acute toxicity in mice) [mg/kg] | ED50 (Gastric acid secretion [1]; [3]) [mg/kg] | ED50 (Gastric acid secretion [2]; [4]) [mg/kg]
1 | COc1ccc(CN(CCN(C)C)c2ccccn2)cc1 [mepyramine] | not inhibited | – | – | – | – | –
2 | CN/C(=N/CCSCc1nc[nH]c1C)NC#N [Compound A, Ncyano-Nmethyl-N{2[(4methyl-5-imidazolyl)methylthio]ethyl}guanidine] | – | 0.333 ± 0.042 | 42.6 | 152 | – | –
3 | NC(N)=Nc1nc(CSCCC(N)=NS(N)(=O)=O)cs1 [Example 1, N-sulfamoyl-3-[(2-guanidinothiazol-4-yl)methylthio]propionamidine] | – | – | – | 244 | 0.0087 ± 0.0005 | 0.87
4 | N#CN=C(N)NCCSCc1csc(NC(=N)N)n1 [Compound B, 2guanidino-4-[2(2-cyanoguanidino)ethylthiomethyl]thiazole] | – | – | – | 94.6 | 0.0352 ± 0.0022 | 49.3
5 | CS(=O)(=O)NC(=N)CCSCc1csc(NC(=N)N)n1 [Example 2, N-methanesulfonyl-3-[(2-guanidinothiazol-4-yl)-methylthio]propionamidine] | – | – | – | 152 | 0.0191 ± 0.0026 | 8.9
6 | C/N=C(\S)NCCSCc1[nH]cnc1C [metiamide] | antagonized | – | – | – | – | –
